Data from US20040024055A1, “Pharmaceutical composition containing the exract of saururus chinensis baill useful as an anticancer agent and a process for the preparation thereof” (priority 2000, published 2004).
Converted amounts (≈) assume the structure as drawn.

Assays:
[1] = tested on: 293; assay: MTT analysis, cytotoxicity against normal cell line; format: cell-based, human; settings: Homo sapiens, HEK293; MTT, 48 hr
[2] = tested on: DU-145 prostate cancer cell line; assay: MTT analysis, anticancer activity; format: cell-based, human; settings: Homo sapiens, DU-145, 48 hr
Description: (§2) To be specific, SK-Hep-1 cell, which is liver cancer cell line, was added to 96-well microplate (Falcon, USA) with the concentration of 3×10^5 cells/ml by 100 μl per well. Each extracted and separated substance dissolved in DMSO was added to the well by 100 μl for the final concentration to be from 50 μg/ml to 0.0244 μg/ml, with 200 μl of final volume. Each cell was cultured for 48 hr in a culture medium of 37° C. and 5% CO2. After cultivation, 20 μl of phosphate buffer solution containing 5 mg/ml of MTT (3-[4,5-dimethylthiazol-2-yl]-2,5-diphenyltetrazoliumbromide, Sigma Co.) reagent was added to each well, and then cultured for 4 hr. After taking 100 μl of supernant from each culture medium, 100 μl of 0.04N hydrochloric acid-isopropanol was added. After letting alone overnight, absorbance was measured at 560 nm using automatic Eliza detector (Molecular Divices Corp., USA). Anticancer activity of each extracted and separated substance was calculated from the absorbance value by Equation 1 and was expressed in terms of cell.
(§3) Average Existence Rate(%)=(Absorbance of Treated Group)/(Absorbance of Control Group)×100

[3] = tested on: HS-746T; assay: MTT analysis, anticancer activity; format: cell-based, human; settings: Homo sapiens, Hs746T; MTT, 48 hr
[4] = tested on: Hep-2; assay: MTT analysis, anticancer activity; format: cell-based, human; settings: Homo sapiens, HEp-2; MTT, 48 hr; read-out: IC50 Hep-2
[5] = tested on: NIH-3T3; assay: Adhesion of cell to Collagen; format: cell-based, mouse
Description: (§1) After treating HNP-98701 on tissue culture plate coated with the matrices, cancer cell was attached thereupon. To be specific, 50 μl/ml of […], 2 μg/ml of laminin, 2 μg/ml of collagen and 2 μg/ml of gelatin were coated on the surface of 96-well microplate (Corning Co.) per well. After solidifying for 2 hr, HNP-98701 was added to each well and treated for 1 hr. […] After treating the substances for 1 hr, cancer cell was added to each cell, and it was cultured for 3 hr. […] After culturing these cell lines for 3 hr, they were centrifuged. After collecting biomass only, it was washed with distilled water or PBS buffer solution for three times. […] Then, absorbance was measured at 560-405 nm with automatic Eliza detector (Molecular […] Corp., USA). […] Each experiment was performed for three times repeatedly.

[6] = tested on: CPAE; assay: MTT analysis, cytotoxicity against normal cell line; format: cell-based, bovine; settings: Bos taurus; MTT, 48 hr
[7] = tested on: SK-Hep-1; assay: Adhesion of cancer cell to Matri-Gel; format: cell-based, human
Description: as §1

[8] = tested on: ME-180; assay: MTT analysis, anticancer activity; format: cell-based, human; settings: Homo sapiens, ME-180; MTT, 48 hr
[9] = tested on: SK-N-SH; assay: MTT analysis, anticancer activity; format: cell-based, human; settings: Homo sapiens, SK-N-SH, 48 hr
[10] = tested on: HS27; assay: MTT analysis, cytotoxicity against normal cell line; format: cell-based, human; settings: Homo sapiens, HS27; MTT, 48 hr
[11] = tested on: NIH-3T3; assay: Adhesion of cell to Laminin; format: cell-based, mouse
Description: as §1

[12] = tested on: HS-578T; assay: MTT analysis, anticancer activity; format: cell-based, human; settings: Homo sapiens, Hs-578T; MTT, 48 hr
[13] = tested on: HS683; assay: MTT analysis, anticancer activity; format: cell-based, human; settings: Homo sapiens, Hs 683, 48 hr
[14] = tested on: HT-29; assay: MTT analysis, anticancer activity; format: cell-based, human; settings: Homo sapiens, HT-29; MTT, 48 hr
[15] = tested on: KATO-III; assay: MTT analysis, anticancer activity; format: cell-based, human; settings: Homo sapiens, KATO III; MTT, 48 hr; read-out: IC50 KATO-III
[16] = tested on: NIH-3T3; assay: Adhesion of cell to Gelatin; format: cell-based, mouse
Description: as §1

[17] = tested on: BT-20; assay: MTT analysis, anticancer activity; format: cell-based, human; settings: Homo sapiens, BT-20, 48 hr
[18] = tested on: SK-MEL-28; assay: Adhesion of cancer cell to Gelatin; format: cell-based, human
Description: as §1

[19] = tested on: SK-Hep-1; assay: Adhesion of cancer cell to Gelatin; format: cell-based, human
Description: as §1

[20] = tested on: Hep-2; assay: Adhesion of cancer cell to Gelatin; format: cell-based, human
Description: as §1

[21] = tested on: NIH-3T3; assay: MTT analysis, cytotoxicity against normal cell line; format: cell-based, mouse; settings: Mus musculus, NIH3T3; MTT, 48 hr
[22] = tested on: SK-MEL-28; assay: Adhesion of cancer cell to Laminin; format: cell-based, human
Description: as §1

[23] = tested on: SK-Hep-1; assay: Adhesion of cancer cell to Laminin; format: cell-based, human
Description: as §1

[24] = tested on: Hep-2; assay: Adhesion of cancer cell to Laminin; format: cell-based, human
Description: as §1

[25] = tested on: BT-549; assay: MTT analysis, anticancer activity; format: cell-based, human; settings: Homo sapiens, BT-549; MTT, 48 hr
[26] = tested on: T-47D; assay: MTT analysis, anticancer activity; format: cell-based, human; settings: Homo sapiens, T47D, 48 hr
[27] = tested on: 3T3-L1; assay: MTT analysis, cytotoxicity against normal cell line; format: cell-based, mouse; settings: Mus musculus, 3T3-L1; MTT, 48 hr
[28] = tested on: HeLa; assay: MTT analysis, anticancer activity; format: cell-based, human; settings: Homo sapiens, HeLa, 48 hr
[29] = tested on: SK-Hep-1 liver cancer cell line; assay: MTT analysis, anticancer activity; format: cell-based, human; settings: Homo sapiens, SK-HEP1, 48 hr
Description: as §2, §3

[30] = tested on: NIH-3T3; assay: Adhesion of cell to Matri-Gel; format: cell-based, mouse
Description: as §1

[31] = tested on: PC-3 prostate cancer cell line; assay: MTT analysis, anticancer activity; format: cell-based, human; settings: Homo sapiens, 48 hr
Description: as §2, §3

[32] = tested on: SK-MEL-28; assay: MTT analysis, anticancer activity; format: cell-based, human; settings: Homo sapiens, SK-MEL-28, 48 hr

IC50 [2]: > 50 µg/mL
IC50 [3]: > 50 µg/mL
IC50 [4]: 0.087 µg/mL (≈ 0.16 µM)
IC50 [8]: 0.108 µg/mL (≈ 0.198 µM)
IC50 [9]: 0.207 µg/mL (≈ 0.381 µM)
IC50 [12]: 0.469 µg/mL (≈ 0.862 µM)
IC50 [13]: 0.205 µg/mL (≈ 0.377 µM)
IC50 [14]: 0.413 µg/mL (≈ 0.759 µM)
IC50 [15]: 0.342 µg/mL (≈ 0.628 µM)
IC50 [17]: 0.131 µg/mL (≈ 0.241 µM)
IC50 [25]: 0.438 µg/mL (≈ 0.806 µM)
IC50 [26]: 0.255 µg/mL (≈ 0.469 µM)
IC50 [28]: 0.703 µg/mL (≈ 1.29 µM)
IC50 [29]: 0.282 µg/mL (≈ 0.518 µM)
IC50 [31]: 0.575 µg/mL (≈ 1.06 µM)
IC50 [32]: 0.75 µg/mL (≈ 1.38 µM)
SMILES: COc1cccc2c1C(=O)c1c(O)c3c(c(O)c1C2=O)C[C@@](O)(C(=O)CO)C[C@@H]3O[C@H]1C[C@H](N)[C@H](O)[C@H](C)O1 [Adriamycin, adriamycin (doxorubicin)]
IC50 [1]: < 0.008 µg/mL
Adhesion NIH-3T3 (%) ([5]; 0.1 μg/ml): 111.98%
Adhesion NIH-3T3 (%) ([5]; 1 μg/ml): 109.97%
Adhesion NIH-3T3 (%) ([5]; 10 μg/ml): 111.13%
IC50 [6]: 0.0208 µg/mL (≈ 0.0383 µM)
Adhesion SK-Hep-1 (%) ([7]; 0.1 μg/ml): 99.04%
Adhesion SK-Hep-1 (%) ([7]; 1 μg/ml): 95.93%
Adhesion SK-Hep-1 (%) ([7]; 10 μg/ml): 88.74%
IC50 [10]: 0.218 µg/mL (≈ 0.401 µM)
Adhesion NIH-3T3 (%) ([11]; 0.1 μg/ml): 107.38%
Adhesion NIH-3T3 (%) ([11]; 1 μg/ml): 103.07%
Adhesion NIH-3T3 (%) ([11]; 10 μg/ml): 91.63%
Adhesion NIH-3T3 (%) ([16]; 0.1 μg/ml): 108.67%
Adhesion NIH-3T3 (%) ([16]; 1 μg/ml): 108.86%
Adhesion NIH-3T3 (%) ([16]; 10 μg/ml): 105.81%
Adhesion SK-MEL-28 (%) ([18]; 0.1 μg/ml): 96.39%
Adhesion SK-MEL-28 (%) ([18]; 1 μg/ml): 97.42%
Adhesion SK-MEL-28 (%) ([18]; 10 μg/ml): 97.21%
Adhesion SK-Hep-1 (%) ([19]; 0.1 μg/ml): 85.77%
Adhesion SK-Hep-1 (%) ([19]; 1 μg/ml): 76.37%
Adhesion SK-Hep-1 (%) ([19]; 10 μg/ml): 33.29%
Adhesion Hep-2 (%) ([20]; 0.1 μg/ml): 104.27%
Adhesion Hep-2 (%) ([20]; 1 μg/ml): 98.27%
Adhesion Hep-2 (%) ([20]; 10 μg/ml): 97.73%
IC50 [21]: 0.496 µg/mL (≈ 0.913 µM)
Adhesion SK-MEL-28 (%) ([22]; 0.1 μg/ml): 108.40%
Adhesion SK-MEL-28 (%) ([22]; 1 μg/ml): 109.66%
Adhesion SK-MEL-28 (%) ([22]; 10 μg/ml): 113.03%
Adhesion SK-Hep-1 (%) ([23]; 0.1 μg/ml): 96.18%
Adhesion SK-Hep-1 (%) ([23]; 1 μg/ml): 96.92%
Adhesion SK-Hep-1 (%) ([23]; 10 μg/ml): 95.86%
Adhesion Hep-2 (%) ([24]; 0.1 μg/ml): 106.76%
Adhesion Hep-2 (%) ([24]; 1 μg/ml): 105.13%
Adhesion Hep-2 (%) ([24]; 10 μg/ml): 98.75%
IC50 [27]: 2 µg/mL (≈ 3.68 µM)
Adhesion NIH-3T3 (%) ([30]; 0.1 μg/ml): 115.00%
Adhesion NIH-3T3 (%) ([30]; 1 μg/ml): 108.65%
Adhesion NIH-3T3 (%) ([30]; 10 μg/ml): 104.23%
